Data from patent EP4741395A1, “NOVEL COMPOUND SENSITIVE TO NITROGEN MONOXIDE AND PHARMACEUTICAL COMPOSITION COMPRISING SAME” (Omniamed Co. Ltd, priority 2023, dated 2025).

What was measured:
[1] = DAF-2 assay of NO scavenging activity without and with H2O2 (ROS); format: biochemical; conditions: SNAP 100 µM, DAF-2 10 µM, 3 hours, 37°C; for NO Scavenging Activity (%) (Mean±SD) With H2O2: H2O2 1 mM
Description: The pharmaceutical composition sensitive to nitrogen monoxide including the compound according to each of Examples 23 to 28 and 32 may have scavenging activity for reactive oxygen species (ROS). NO scavenging activity of the pharmaceutical composition was evaluated through a DAF-2 assay.
Specifically, to a 100 µM solution of SNAP, the compound synthesized in each of the Examples was added at a concentration of the following Table 2, and reacted. Then 10 µM of DAF-2 was added thereto, followed by a reaction for 3 hours in a 37°C incubator.
Additionally, a stock solution of H2O2 (10 M) was added to the reaction solution so that SNAP and H2O2 had final concentrations of 100 µM and 1 mM, respectively. Then, the compound synthesized in each of the Examples was added thereto at a concentration of the following Table 11, followed by a reaction in the same manner, and NO scavenging activity was calculated by Equation 1.

Raw 264.7 cell line = experiment: NO scavenging activity in LPS-treated immune cells (Griess reagent); format: cell-based; conditions: Mus musculus, RAW264.7, Raw 264.7, LPS 500 ng/mL, 24 hours, read-out: NO Scavenging Activity (%) (Mean±SD)
Description: Raw 264.7 cell line was seeded in a 48-well plate at a density of 8×10^4 cells/well, and cultured at 37°C in a DMEM medium including 10% FBS, 100 U/mL of penicillin and 100 µg/mL of streptomycin.
The medium was cultured overnight, and then replaced with a fresh medium including 10 µM of the pharmaceutical composition sensitive to nitrogen monoxide including the compound of each of Examples 1 to 30 and 500 ng/mL of LPS, and the fresh medium was cultured again for another 24 hours.
Lastly, in order to measure the amount of NO produced, the amount of NO2^- present in the cell culture medium was measured using a Griess reagent (sulfanilamide, N-1-naphthylethylenediamine dihydrochloride). Specifically, 100 µL of a Griess reagent was mixed with a mixture solution of 50 µL of the cell culture medium and 50 µL of PBS. The mixture solution was reacted for 10 minutes in a well plate, and absorbance thereof at 540 nm was measured.

splenocytes [2] = experiment: NO scavenging activity in Concanavalin A-treated splenocytes (Griess assay); format: cell-based, C57BL/6 mouse; conditions: Mus musculus, Splenocyte, Concanavalin A 5 µg/mL, 72 hours, read-out: NO Scavenging Activity (%) (Mean±SD)
Description: (§1) A spleen was isolated from an 8-week-old C57BL/6 mouse, and splenocytes were isolated using a physical method.
(§2) The separated splenocytes were diluted to a concentration of 5×10^6 cells/mL in a RPMI 1640 medium including 10% FBS, 100 U/mL of penicillin and 100 µg/mL of streptomycin, and the diluted splenocytes were dispensed at 500 µL/well into a 48-well plate and 100 µL/well into a 96-well plate, and cultured for 72 hours in an incubator. The splenocytes were treated with Concanavalin A (5 µg/mL) when dispensed to induce an immune response, and herein, […] of the pharmaceutical composition including the compound according to each of the Examples was also added thereto. After 72 hours, the supernatant was collected, and the level of remaining NO was checked through a Griess assay, and calculated by the following Equation 4.

IFN-γ = IFN-γ reduction activity in Concanavalin A-treated splenocytes (quantitative ELISA); format: cell-based, C57BL/6 mouse; conditions: Mus musculus, Splenocyte, Concanavalin A 5 µg/mL, 72 hours, read-out: IFN-γ Reduction Activity (%) (Mean±SD)
Description: as §1, §2
NO is one of important inflammatory mediators, and may increase the level of inflammatory cytokine. Concanavalin A (5 µg/mL), which induces an immune response in splenocytes, and the compound of each of Examples were treated in a concentration-dependent manner to check whether the level of IFN-γ, a representative inflammatory cytokine, was reduced. The supernatant was collected 72 hours after the treatment, and analyzed using a quantitative enzyme-linked immunosorbent assay (Quantitative-ELISA).

splenocytes [3] = experiment: Inhibitory activity on cell proliferation in splenocytes (CCK-8 analysis); format: cell-based, C57BL/6 mouse; conditions: Mus musculus, Splenocyte, Concanavalin A 5 µg/mL, 72 hours, read-out: Inhibitory Activity on Cell Proliferation (%) (Mean±SD)
[4] = DAF-2 assay of NO scavenging activity (NO donor SNAP); format: biochemical; conditions: DAF-2 10 µM, SNAP 100 µM, PBS, 3 hours, 37°C
Description: NO scavenging activity of the pharmaceutical composition sensitive to nitrogen monoxide including the compound according to each of Examples 1 to 22, 29 to 31, and 33 to 35 was evaluated through a DAF-2 assay.
Specifically, a reagent stock solution was made using DMSO (dimethyl sulfoxide) in order to prepare 5 mM of DAF-2, 100 mM of SNAP and 5 mM of the compound synthesized in each of the Examples, and for the reaction, the solution was added to a PBS (phosphate buffered saline) solution so that DAF-2, SNAP and the compound had final concentrations of 10 µM, 100 µM and the concentration of Table 1, respectively, followed by a reaction for 3 hours in a 37°C incubator.

JAK 1 = JAK 1 (Homo sapiens, UniProt P23458); experiment: JAK Human TK kinase enzymatic radiometric assay (Eurofins), JAK 1; conditions: value close to 100 indicates low JAK activity of the compound
Sequence of JAK 1 (P23458 whole entry): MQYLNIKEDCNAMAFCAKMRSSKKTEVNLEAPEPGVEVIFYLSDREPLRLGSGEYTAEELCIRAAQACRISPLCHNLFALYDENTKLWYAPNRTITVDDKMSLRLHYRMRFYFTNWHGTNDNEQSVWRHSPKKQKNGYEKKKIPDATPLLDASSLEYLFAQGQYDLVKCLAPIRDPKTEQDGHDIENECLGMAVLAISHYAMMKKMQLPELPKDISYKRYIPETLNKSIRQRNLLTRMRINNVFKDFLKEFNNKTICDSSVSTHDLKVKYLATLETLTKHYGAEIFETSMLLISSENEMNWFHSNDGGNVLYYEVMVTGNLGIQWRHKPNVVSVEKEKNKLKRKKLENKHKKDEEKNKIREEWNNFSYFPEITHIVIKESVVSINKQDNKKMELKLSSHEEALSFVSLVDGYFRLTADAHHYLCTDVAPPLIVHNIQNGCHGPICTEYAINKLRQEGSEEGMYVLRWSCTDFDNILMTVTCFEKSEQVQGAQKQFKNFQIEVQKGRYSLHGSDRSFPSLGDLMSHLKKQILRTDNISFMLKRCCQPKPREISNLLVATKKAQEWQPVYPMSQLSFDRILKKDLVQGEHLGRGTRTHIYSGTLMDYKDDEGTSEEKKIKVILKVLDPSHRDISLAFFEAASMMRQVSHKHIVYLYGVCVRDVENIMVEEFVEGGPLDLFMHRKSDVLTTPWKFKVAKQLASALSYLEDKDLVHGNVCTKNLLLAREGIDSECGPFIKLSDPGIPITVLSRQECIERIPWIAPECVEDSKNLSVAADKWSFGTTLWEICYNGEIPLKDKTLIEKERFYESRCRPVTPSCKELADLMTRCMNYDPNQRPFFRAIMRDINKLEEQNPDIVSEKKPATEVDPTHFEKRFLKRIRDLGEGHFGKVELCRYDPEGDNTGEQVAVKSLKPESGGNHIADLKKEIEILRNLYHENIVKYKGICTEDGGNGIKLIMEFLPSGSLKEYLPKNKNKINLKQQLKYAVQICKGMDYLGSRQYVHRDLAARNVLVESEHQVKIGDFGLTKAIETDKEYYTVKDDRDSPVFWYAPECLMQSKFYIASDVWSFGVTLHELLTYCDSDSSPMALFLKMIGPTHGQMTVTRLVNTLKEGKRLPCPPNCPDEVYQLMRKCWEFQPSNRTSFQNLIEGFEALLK
Description: For the compounds of the Examples, JAK activity of each of the compounds was verified using the JAK Human TK Kinase Enzymatic Radiometric Kinase Profiler Assay service provided by Eurofins Scientific.
The activity was verified after inducing a reaction at the JAK 1, 2 and 3 active sites using radioactively labeled ATP.

| JAK 1 Activity (JAK 1; 0.1 nM) | JAK 1 Activity (JAK 1; 1 nM) | JAK 1 Activity (JAK 1; 10 nM) | JAK 1 Activity (JAK 1; 100 nM) | Structure (SMILES) | NO Scavenging Activity (%) (Mean±SD) Without H2O2 ([1]; compound 1 µM) | NO Scavenging Activity (%) (Mean±SD) With H2O2 ([1]; compound 1 µM) | NO Scavenging Activity (%) (Mean±SD) Without H2O2 ([1]; compound 5 µM) | NO Scavenging Activity (%) (Mean±SD) With H2O2 ([1]; compound 5 µM) | NO Scavenging Activity (%) (Mean±SD) Without H2O2 ([1]; compound 10 µM) | NO Scavenging Activity (%) (Mean±SD) With H2O2 ([1]; compound 10 µM) | activity at 10 µM (Raw 264.7 cell line) [%] | activity at 10 µM (splenocytes [2]) [%] | activity at 10 µM (IFN-γ) [%] | inhibition at 10 µM (splenocytes [3]) [%] | NO Scavenging Activity (%) (Mean±SD) ([4]; compound 1 µM) | NO Scavenging Activity (%) (Mean±SD) ([4]; compound 5 µM) | NO Scavenging Activity (%) (Mean±SD) ([4]; compound 10 µM) |
| --- | --- | --- | --- | --- | --- | --- | --- | --- | --- | --- | --- | --- | --- | --- | --- | --- | --- |
| – | – | – | – | C[C@@H]1CCN(C(=O)CC#N)C[C@@H]1N(C)c1ncnc2c1ccn2C(=O)Nc1cc2c(cc1NC(=O)OCc1ccc(B3OC(C)(C)C(C)(C)O3)cc1)n(C)c(=O)n2C [Example 28, 4-(4,4,5,5-tetramethyl-1,3,2-dioxaborolan-2-yl)benzyl (6-(4-(((3R,4R)-1-(2-cyanoacetyl)-4-methylpiperidin-3-yl) (methyl)amino)-7H-pyrrolo[2,3-d]pyrimidine-7-carboxamido)-1,3-dimethyl-2-oxo-2,3-dihydro-1H-benzo[d]imidazol-5-yl)carbamate] | 3.73± 0.57 | 76.23 ±0.94 | 13.25 ±0.69 | 98.01 ±0.04 | 14.18 ±0.62 | 98.34 ±0.05 | 49.8 ± 0.43 | 92 ± 0.56 | 100 | 80.7 ± 7.12 | – | – | – |
| – | – | – | – | CC[C@@H]1CN(C(=O)NCC(F)(F)F)C[C@@H]1c1cnc2cnc3c(ccn3C(=O)Nc3ccccc3N)n12 [Example 29, N-(2-aminophenyl)-8-((3R,4S)-4-ethyl-1-((2,2,2-trifluoroethyl)carbamoyl)pyrrolidin-3-yl)-3H-imidazo[1,2-a]pyrrolo[2,3-e]pyrazine-3-carboxamide] | – | – | – | – | – | – | 90.1 ± 0.74 | 88.5 ± 0.47 | 100 | 78 ± 6.9 | 3.68± 7.63 | 1.71± 4.16 | 25.18 ±3.14 |
| – | – | – | – | Cc1ccc(NC(=O)OCc2ccc(B3OC(C)(C)C(C)(C)O3)cc2)c(NC(=O)n2ccc3c(N(C)[C@H]4CN(C(=O)CC#N)CC[C@H]4C)ncnc32)c1 [Example 26, 4-(4,4,5,5-tetramethyl-1,3,2-dioxaborolan-2-yl)benzyl (2-(4-(((3R,4R)-1-(2-cyanoacetyl)-4-methylpiperidin-3-yl) (methyl)amino)-7H-pyrrolo[2,3-d]pyrimidine-7-carboxamido)-4-methylphenyl)carbamate] | – | – | – | – | 42.98 ±2.51 | 92.96 ±0.04 | 73.7 ± 0.33 | 100 | 97.4 ± 0.1 | 75.6 ± 0.96 | – | – | – |
| 97 | 105 | 102 | 85 | C[C@@H]1CCN(C(=O)CC#N)C[C@@H]1N(C)c1ncnc2c1ccn2C(=O)N(C)CCN(C)C(=O)Nc1cc(N(C)C)ccc1N [Example 21, N-(2-(3-(2-amino-5-(dimethylamino)phenyl)-1-methylureido)ethyl)-4-(((3R,4R)-1-(2-cyanoacetyl)-4-methylpiperidin-3-yl) (methyl)amino)-N-methyl-7H-pyrrolo[2,3-d]pyrimidine-7-carboxamide] | – | – | – | – | – | – | 61.2 ± 0.15 | 52.4 ± 0.67 | 98.1 ± 0.03 | 48.3 ± 3.72 | 2.57± 1.66 | 38.13 ±1.01 | 66.27 ±0.14 |
| 94 | 90 | 100 | 83 | C[C@@H]1CCN(C(=O)CC#N)C[C@@H]1N(C)c1ncnc2c1ccn2C(=O)N(C)CCN(C)C(=O)Nc1cc(N(C)C)ccc1NC(=O)OCc1ccc(B(O)O)cc1 [Example 23, (4-((((2-(3-(2-(4-(((3R,4R)-1-(2-cyanoacetyl)-4-methylpiperidin-3-yl)(methyl)amino)-N-methyl-7H-pyrrolo[2,3-d]pyrimidine-7-carboxamido)ethyl)-3-methylureido)-4-(dimethylamino)phenyl)carbamoyl)oxy)methyl)phenyl)boronic acid] | 21.08 ±0.77 | 25.76 ±6.11 | 39.33 ±8.29 | 64.84 ±1.94 | 52.96 ±6.23 | 83.96 ±0.29 | 16.8 ± 0.7 | 19.5 ± 0.65 | 68 ± 0.45 | 11.8 ± 2.08 | – | – | – |
| – | – | – | – | CC[C@@H]1CN(C(=O)NCC(F)(F)F)C[C@@H]1c1cnc2cnc3c(ccn3C(=O)Nc3ccc(N(C)C)cc3N)n12 [Example 30, N-(2-amino-4-(dimethylamino)phenyl)-8-((3R,4S)-4-ethyl-1-((2,2,2-trifluoroethyl)carbamoyl)pyrrolidin-3-yl)-3H-imidazo[1,2-a]pyrrolo[2,3-e]pyrazine-3-carboxamide] | – | – | – | – | – | – | 91.6 ± 0.68 | 98.1 ± 0.09 | 91.5 ± 1.37 | 55 ± 8.48 | 83.14 ±2.29 | 86.44 ±1.93 | 88.19 ±1.75 |
| – | – | – | – | C[C@@H]1CCN(C(=O)CC#N)C[C@@H]1N(C)c1ncnc2c1ccn2C(=O)Nc1ccccc1NC(=O)OCc1ccc(B2OC(C)(C)C(C)(C)O2)cc1 [Example 25, 4-(4,4,5,5-tetramethyl-1,3,2-dioxaborolan-2-yl)benzyl (2-(4-(((3R,4R)-1-(2-cyanoacetyl)-4-methylpiperidin-3-yl) (methyl)amino)-7H-pyrrolo[2,3-d]pyrimidine-7-carboxamido)phenyl) carbamate] | – | – | – | – | 42.36 ±1.91 | 89.96 ±0.19 | 63.2 ± 0.56 | 100 | 98.7 ± 0.04 | 81.4 ± 7.94 | – | – | – |
